Source: patent US20130143902A1, “COMPOSITIONS AND METHODS OF TREATING A PROLIFERATIVE DISEASE WITH A QUINAZOLINONE DERIVATIVE” (GILEAD CALISTOGA LLC, priority 2011, published 2013)
Values joined by “and” are separate entries in the source; they are usually repeats but may differ in a detail not shown here. Equal values may be shown once.

Assays:
[1] = Mouse PK; type: in vivo; settings: plasma, PO 20 mg/kg
Description: (§1) The pharmacokinetics of Compound A in mouse and dogs were also examined. […] The results of Tmax (time of maximum observed concentration), Cmax (maximum concentration in plasma measured), AUC (area under the curve for plasma concentration versus time), Cl (total body clearance), and Vz (volume of distribution) were summarized in Table 4. As used herein, the mark ‘-’ represents data not relevant. AUC is shown as the unit of ng*h/mL (ng=nanograms, h=hour, mL=milliliter); ng are multiplied by h, and the value is divided by the volume in mL.

[2] = Dog PK; type: in vivo; settings: plasma
Description: as §1

[3] = target: T1, PI3K p110β (Mus musculus, UniProt Q8BTI9); test: Cellular p110β signaling: LPA-stimulated MEFs, pAkt Western blot; type: cell-based, murine; settings: EC50 p110β, cellular assay
T1 construct: endogenous in cells; host or cells: murine embryo fibroblasts (MEFs)
Experimental: To analyze PI3K p110α and p110β signaling, murine embryo fibroblast (MEFs) were removed from FBS and starved for 2 hours followed by stimulation with 10 ng/mL of PDGF (Cell Signaling Technologies, Danvers, Mass.) or 10 μM of LPA (Echelon, Salt Lake City, Utah) for 10 minutes at 37° C., respectively. After washing once in cold phosphate-buffered saline (PBS), the cell pellet was resuspended in 1× cell lysis buffer (Cell Signaling Technologies) supplemented with mini protease inhibitor mix (Roche, Indianapolis, Ind.), phosphate inhibitor cocktail set I and II (Calbiochem, San Diego, Calif.) for 15 minutes on ice. Whole-cell lysates were obtained by centrifugation at 16,000 g for 10 minutes at 4° C., and the soluble protein was analyzed by Western blotting for Akt and pAkt levels. To analyze PI3K p110δ and p110γ signaling, basophil activation was measured in isolated PBMC or whole blood using the Flow2 CAST kit according to the manufacture's standardized methods (Buhlman Laboratories AG, Switzerland). Briefly, p110δ was activated with anti-FCεRI and p110γ was activated with fMLP (2 μM) in the absence or presence of compounds. To monitor the basophil cell population and cellular activation, anti-CD63-FITC and anti-CCR3-PE antibodies were added to each sample. Cells were fixed and analyzed on a FC500 MPL flow cytometer (Beckman Coulter, Brea, Calif.).

[4] = test system: SF-295; test: pAkt pathway inhibition, SF-295; type: cell-based; settings: Homo sapiens; SF-295, CNS
[5] = test system: BT549; test: pAkt pathway inhibition, BT549; type: cell-based; settings: Homo sapiens, BT-549; BT549, Breast
[6] = test system: MDA-MB-468; test: pAkt pathway inhibition, MDA-MB-468; type: cell-based; settings: Homo sapiens; MDA-MB-468, Breast
[7] = test system: U138MG; test: pAkt pathway inhibition, U138MG; type: cell-based; settings: Homo sapiens, U138-MG, Glioma
[8] = test system: U251; test: pAkt pathway inhibition, U251; type: cell-based; settings: Homo sapiens, U-251; U251, Glioma
[9] = test system: VCaP; test: pAkt pathway inhibition, VCaP; type: cell-based; settings: Homo sapiens, Prostate
[10] = test system: 22Rv1; test: pAkt pathway inhibition, 22Rv1; type: cell-based; settings: Homo sapiens; 22Rv1, Prostate
[11] = test system: U87MG; test: Viability (AlamarBlue), U87MG; type: cell-based; settings: Homo sapiens, U-87 MG, Glioma
Experimental: (§2) For primary T-ALL samples, cell viability was determined using the BD Cell Viability kit (BD Biosciences) and fluorescent counting beads as previously described in Armstrong, F. et al., NOTCH is a key regulator of human T-cell acute leukemia initiating cell activity, Blood 113, 1730-1740 (2009). Cells were plated with MS5-DL1 stroma cells. After 72 hours following treatment, cells were harvested and stained with an APC-conjugated anti-human CD45 according to the manufacturer's instructions. For solid tumor cell lines, cellular viability was determined using the AlamarBlue kit (Invitrogen). About 10,000 cells in 100 μL of media containing 10% FBS were aliquoted into individual wells of a 96-well plate and treated with vehicle (DMSO) or compound in triplicate for 24 hours. Ten μL of AlamarBlue reagent was added to each well and incubated for 4 hours at 37° C. with 5% CO2. Fluorescence was measured with an excitation wavelength at 530 to 560 nm and emission wavelength at 590 nm using Spectramax M5 plate reader (Molecular Devices, Sunnyvale, Calif.).

[12] = test system: PTEN null T-ALL; test: Diseased Lck/PTEN^fl/fl mice with PTEN null T-ALL; type: in vivo; settings: 30 mg/kg BID; for leukemia cells: about 125 million at Day 0
Experimental: Mouse whole blood was incubated with appropriate antibodies and processed using the BD Bioscience BD FACS Lysing Solution according to the manufacturer's instructions. Immediately after lysis, cells were permeabilized with 0.025% Tween-20 in lysing solution for 15 minutes, then incubated with Ki67 antibodies. Single cell suspensions of thymocytes were isolated and stained with the appropriate antibodies as described in Swat, W. et al., Essential role of PI3 Kdelta and PI3 Kgamma in thymocyte survival, Blood 107, 2415-2422 (2006).
All mice were kept in specific pathogen-free facility at Columbia University Medical Center. All procedures were performed in accordance with the guidelines of the Institutional Animal Care and Use Committee. Lck-cre, NOD.Cg-Prkdc^scid Il2rg^tmlWjl/Sz and Gt(ROSA)26Sor^tml(Luc)Kael/J mice were obtained from the Jackson Laboratory. Mice deficient for PTEN in the T-cell lineage were generated by crossing Lck-cre with floxed PTEN. P110γ^−/− and p110δ^−/− mice as described in Swat, W. et al., Essential role of PI3 Kdelta and PI3 Kgamma in thymocyte survival, Blood 107, 2415-2422 (2006). The animals were intercrossed with Lck-cre/PTEN^fl/fl animals to generate mice homozygous mutant for either p110γ or p110δ and PTEN or homozygous mutant for p110γ, 110δ, and PTEN.
Lck/PTEN^fl/fl mice were crossed with the mice having a luciferase cDNA, preceded by a LoxP-stop-LoxP cassette was introduced into the ubiquitously expressed ROSA26 locus. […] The results are consistent with the reduction in whole blood cells and CD4 single positive population of tumor cells.
Lck/PTEN^fl/fl mice having T-ALL were administered with Compound B at an oral dose of 10 mg/kg every 8 hours or DMSO vehicle for a period of 7 days. […] Compound B extended the median survival to 45 days compared to 7.5 days for the vehicle group (data not shown).
Diseased Lck/PTEN^fl/fl mice (i.e. Lck/PTEN^fl/fl mice diagnosed with T-ALL) were treated with Compounds B for a period of 7 days. Mice were examined for sequential blood counts, peripheral smears, and flow cytometric analyses. […] Forward scatter (FSC) and Ki67 staining were indicators of cell size and proliferation, respectively; and apoptosis was detected by assessing the […] population after PI staining.
PTEN^fl/fl mice were crossed with the mice having a luciferase cDNA, preceded by a LoxP-stop-LoxP cassette was introduced into the ubiquitously expressed ROSA26 locus. Progeny were then crossed with Lck-cre transgenics to delete PTEN in T-cell progenitors and induce expression of luciferase. Imaging on T-ALL tumor bearing mice was performed at Day 0 and 4 after treatment of Compound B or vehicle.

[13] = test system: primary T-ALL tumors; test: Viability of primary T-ALL tumors; type: cell-based, human; settings: 1.0, 2.5, and 5.0 μM, 72 hours
Experimental: Cryopreserved samples from the Columbia Presbyterian Hospital, the Erasmus MC-Sophia Children's Hospital, and the University of Padua were used. All samples were collected with informed consent and supervised by the institutes' review boards and the Acute Lymphoblastic Leukemia Strategic Scientific Committee.
as §2, with “Calif.). […]” for “Calif.).”

T1 sequence (Q8BTI9 whole entry): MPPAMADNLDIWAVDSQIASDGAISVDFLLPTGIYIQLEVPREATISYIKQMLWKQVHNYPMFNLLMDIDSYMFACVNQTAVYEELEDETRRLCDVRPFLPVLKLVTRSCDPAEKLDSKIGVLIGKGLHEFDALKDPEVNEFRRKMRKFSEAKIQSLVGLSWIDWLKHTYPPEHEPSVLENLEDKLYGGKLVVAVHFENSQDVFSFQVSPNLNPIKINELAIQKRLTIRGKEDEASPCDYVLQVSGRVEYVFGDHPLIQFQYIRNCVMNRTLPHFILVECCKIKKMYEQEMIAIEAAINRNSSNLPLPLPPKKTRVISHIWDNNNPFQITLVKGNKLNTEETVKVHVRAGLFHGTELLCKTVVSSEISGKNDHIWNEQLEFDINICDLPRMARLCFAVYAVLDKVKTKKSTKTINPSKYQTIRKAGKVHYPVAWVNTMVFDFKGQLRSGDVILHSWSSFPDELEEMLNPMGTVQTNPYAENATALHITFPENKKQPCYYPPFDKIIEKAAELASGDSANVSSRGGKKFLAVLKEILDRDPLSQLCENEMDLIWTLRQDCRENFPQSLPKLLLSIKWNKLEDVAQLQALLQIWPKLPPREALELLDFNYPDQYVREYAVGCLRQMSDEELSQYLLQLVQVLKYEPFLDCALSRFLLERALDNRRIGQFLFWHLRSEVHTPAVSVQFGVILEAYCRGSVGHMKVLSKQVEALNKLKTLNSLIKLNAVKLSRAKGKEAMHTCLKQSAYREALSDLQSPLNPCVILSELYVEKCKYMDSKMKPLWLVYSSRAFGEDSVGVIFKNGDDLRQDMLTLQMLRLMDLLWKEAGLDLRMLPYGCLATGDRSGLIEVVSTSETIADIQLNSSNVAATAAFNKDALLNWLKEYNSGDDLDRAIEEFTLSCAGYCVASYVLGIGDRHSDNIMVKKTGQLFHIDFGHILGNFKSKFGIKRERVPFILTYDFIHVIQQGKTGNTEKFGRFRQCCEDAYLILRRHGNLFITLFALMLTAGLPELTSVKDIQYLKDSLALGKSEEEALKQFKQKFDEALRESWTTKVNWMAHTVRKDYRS
T1 sequence (P26450 whole entry partner): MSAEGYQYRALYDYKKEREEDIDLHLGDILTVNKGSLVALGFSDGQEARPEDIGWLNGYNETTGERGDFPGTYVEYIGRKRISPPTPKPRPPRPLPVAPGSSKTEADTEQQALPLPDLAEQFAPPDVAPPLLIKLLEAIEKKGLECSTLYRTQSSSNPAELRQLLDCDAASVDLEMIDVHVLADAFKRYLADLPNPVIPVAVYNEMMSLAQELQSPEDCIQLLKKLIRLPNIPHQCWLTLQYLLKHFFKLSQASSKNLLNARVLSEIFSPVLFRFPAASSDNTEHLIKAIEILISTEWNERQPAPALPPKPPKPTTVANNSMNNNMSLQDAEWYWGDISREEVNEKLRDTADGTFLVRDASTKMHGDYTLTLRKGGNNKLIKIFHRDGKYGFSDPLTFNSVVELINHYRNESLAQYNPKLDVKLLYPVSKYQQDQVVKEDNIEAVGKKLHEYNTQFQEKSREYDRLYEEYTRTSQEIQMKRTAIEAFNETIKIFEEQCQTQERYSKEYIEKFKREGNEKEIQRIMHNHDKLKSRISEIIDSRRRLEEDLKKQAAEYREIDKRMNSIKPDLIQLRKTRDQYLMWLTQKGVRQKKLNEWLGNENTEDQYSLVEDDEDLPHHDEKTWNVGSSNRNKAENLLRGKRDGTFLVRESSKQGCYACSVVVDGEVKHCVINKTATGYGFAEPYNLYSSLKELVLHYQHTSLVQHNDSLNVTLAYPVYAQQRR

## CC(Nc1ncnc2[nH]cnc12)c1nc2cccc(Cl)c2c(=O)n1-c1ccccc1 (stereo not shown) [Compound A, 2-(1-(9H-purin-6-ylamino)ethyl)-5-chloro-3-phenylquinazolin-4(3H)-one]
[1]
  AUC: 1500 ng·h/mL
  Cmax: 1280 ng/mL
  Tmax: 0.25 h
[2]; IV 1 mg/kg
  clearance: 6.08 mL/min/kg
[2]; IV 1 mg/kg, read-out: Vz
  Vd: 0.891 L/kg
[2]; PO 1 mg/kg
  AUC: 4450 ng·h/mL
  Cmax: 1040 ng/mL
  Tmax: 2.3 h
[3]
  EC50: ~270 nM and 270 nM
[4]
  EC50: 162 nM
[5]
  EC50: 34 nM
[6]
  EC50: 56 nM
[7]
  EC50: 2290 nM
[8]
  EC50: 2250 nM
[9]
  EC50: 1200 nM
[10]
  EC50: 250 nM
[11]
  GI50: 2500 nM
[12]
  CD3 levels: reduced
[12]; Day 4
  leukemia cells: about 5.6 million
[12]; Day 7
  leukemia cells: about 4.2 million
[12]; by Day 4
  white blood cells: significant reduction
[13]
  viability of tumor cells: reduced viability
